# Results as given in patent US9702007B2, “Genetic markers predictive of response to glatiramer acetate” (TEVA PHARMACEUTICALS INDUSTRIES, LTD., priority 2013, dated 2017).
# Where “and” joins values, the source holds several entries; their conditions need not be identical. Identical values can stand only once. Like-named read-outs stand apart in the source and are kept apart here.
# Key:
# [1] = tested on: RRMS patients; assay: GALA phase 3 trial cohort: response to glatiramer acetate, ARR by predicted responder status; type: in vivo, human
# Experimental: As used herein, “GALA” is a phase 3 clinical trial entitled “A Study in Subjects With Relapsing-Remitting Multiple Sclerosis (RRMS) to Assess the Efficacy, Safety and Tolerability of Glatiramer Acetate (GA) Injection 40 mg Administered Three Times a Week Compared to Placebo (GALA).” The GALA trial has the ClinicalTrials.gov Identifier NCT01067521, and additional information about the trial can be found at clinicaltrials.gov/ct2/show/NCT01067521.
# (§1) Response definitions were received from patients from two large glatiramer acetate clinical trial cohorts (GALA, FORTE) and patients were categorized as responder, non-responder, extreme-responder, or extreme non-responder according to the criteria set forth in Table 1.
# (§2) When analysis was conducted for all genotyped patients of the Gala and FORTE cohorts, based on the predictive model (11 SNPs and 2 clinical variables), 34% of GALA, and 42% of FORTE-patients were classified as “predicted responders”.
# (§3) Analysis was conducted for all genotyped patients of the Gala and FORTE cohorts, based on the 11 SNPs in the predictive model, but without including the clinical variables, and using a threshold at ˜30% of the population classified as “predicted responders” (FIG. 9).
# (§4) When analysis was conducted for all genotyped patients of the Gala and FORTE cohorts, based on the […] and 2 clinical variables, 34% of GALA, and 42% of FORTE-patients were classified as “predicted responders”.
# [2] = tested on: RRMS patients; assay: FORTE phase 3 trial cohort: response to glatiramer acetate, ARR by predicted responder status; type: in vivo, human; details: for ARR reduced (improved) by: predicted responders vs predicted non-responders
# Text: As used herein, “FORTE” is a phase 3 clinical trial entitled “Clinical Trial Comparing Treatment of Relapsing-Remitting Multiple Sclerosis (RR-MS) With Two Doses of Glatiramer Acetate (GA).” The FORTE trial has the ClinicalTrials.gov Identifier NCT00337779 and additional information, including study results can be found at clinicaltrials.gov/ct2/show/NCT00337779.
# as §1, §2, §3, §4
# [3] = tested on: RRMS patients; assay: Combined GALA and FORTE cohorts: patient responses by preliminary predictive model (11 SNPs and 2 clinical co-variates, threshold 0.71); type: in vivo, human; parameters: ARR reduced (improved) by: concentration or dose not given beside the values
# Experimental: A predictive model was generated based on the 11 SNPs shown in tables 42, 43, 44a and 44b and the two Clinical co-variants shown in table 33.
# Receiver Operating Characteristic (ROC) analysis was performed using the actual value (case or control) and predicted value for each sample from the multi-marker regression model (FIG. 1). For these preliminary analyses, two risk groups were defined using the predicted values from the multi-marker regression model. The predictive threshold value was set at 0.71 (termed “model 3”) based on a variety of factors after consultation with the Teva team and Teva MS clinical experts.
# While 40% of patients were classified as “predicted non-responders” with an overall response rate of 34% (FIG. 5).
# [4] = tested on: RRMS subjects; details: cited from earlier work
# [5] = tested on: RRMS patients; details: cited from earlier work
# [6] = change in ARR <-1 and new T2 lesions = 0 and relapse free
# [7] = change in ARR from previous 2 years <-1
# [8] = change in ARR from previous 2 years ≧0
# [9] = change in ARR ≧0 and new T2 lesions ≧1
# [10] = predicted non-responders, 10 SNPs and 2 clinical variables
# [11] = predicted non-responders, 11 SNPs without clinical variables
# [12] = predicted non-responders, model of 11 SNPs and 2 clinical variables
# [13] = predicted responders, 10 SNPs and 2 clinical variables, ± SEM
# [14] = predicted responders, 11 SNPs without clinical variables, threshold ~30% of population, ± SEM
# [15] = predicted responders, model of 11 SNPs and 2 clinical variables, ± SEM
# [16] = predicted responders compared to predicted non-responders
# [17] = predicted responders compared to the overall cohort
# [18] = predicted responders compared to the overall patient cohort
# [19] = predicted responders, ± standard error of the mean
substance,measurement,setting,value
glatiramer acetate,"Extreme Responders, % of cohort",[1]; [6],(8.5%)
same,"Extreme Responders, number of samples",[1]; [6],66
same,"Responders, % of cohort",[1]; [7],(26%)
same,"Responders, number of samples",[1]; [7],200
same,"Non-Responders, % of cohort",[1]; [8],(16%)
same,"Non-Responders, number of samples",[1]; [8],123
same,"Extreme Non-Responders, % of cohort",[1]; [9],(10%)
same,"Extreme Non-Responders, number of samples",[1]; [9],79
same,annualized relapse rate (ARR),[1]; [10],0.374±0.038
same,annualized relapse rate (ARR),[1]; [11],0.382±0.037
same,annualized relapse rate (ARR),[1]; [12],0.374±0.038
same,ARR reduced (improved) by,"[1]; predicted responders vs placebo, 10 SNPs and 2 clinical variables",64%
same,ARR reduced (improved) by,"[1]; predicted responders vs placebo, 11 SNPs and 2 clinical variables",64%
same,ARR reduced (improved) by,"[1]; predicted responders vs placebo, 11 SNPs without clinical variables",71%
same,ARR reduced (improved) by,"[1]; predicted responders vs predicted non-responders, 10 SNPs and 2 clinical variables",51%
same,ARR reduced (improved) by,"[1]; predicted responders vs predicted non-responders, 11 SNPs and 2 clinical variables",51%
same,ARR reduced (improved) by,"[1]; predicted responders vs predicted non-responders, 11 SNPs without clinical variables",62%
same,annualized relapse rate (ARR),[1]; [13],0.185±0.032
same,annualized relapse rate (ARR),[1]; [14],0.131±0.026
same,annualized relapse rate (ARR),[1]; [15],0.185±0.032
same,"Extreme Responders, % of cohort",[2]; [6],(16%)
same,"Extreme Responders, number of samples",[2]; [6],95
same,"Responders, % of cohort",[2]; [7],(36%)
same,"Responders, number of samples",[2]; [7],221
same,"Non-Responders, % of cohort",[2]; [8],(11%)
same,"Non-Responders, number of samples",[2]; [8],68
same,"Extreme Non-Responders, % of cohort",[2]; [9],(6%)
same,"Extreme Non-Responders, number of samples",[2]; [9],38
same,annualized relapse rate (ARR),[2]; [10],0.368±0.039
same,annualized relapse rate (ARR),[2]; [11],0.290±0.03
same,annualized relapse rate (ARR),[2]; [12],0.368±0.039
same,ARR reduced (improved) by,[2]; 10 SNPs and 2 clinical variables,72%
same,ARR reduced (improved) by,[2]; 11 SNPs and 2 clinical variables,72%
same,ARR reduced (improved) by,[2]; 11 SNPs without clinical variables,50%
same,annualized relapse rate (ARR),[2]; [13],0.102±0.020
same,annualized relapse rate (ARR),[2]; [14],0.145±0.029
same,annualized relapse rate (ARR),[2]; [15],0.102±0.020
same,EDSS progression,[3]; overall cohort,0.057
same,response rate,[3]; overall cohort,68%
same,annualized relapse rate (ARR),[3]; overall patient cohort,0.53±0.04
same,number of confirmed relapses (nrelapse),[3]; overall patient cohort,0.46±0.03
same,EDSS progression,[3]; predicted non-responders,0.10±0.02
same,annualized relapse rate (ARR),[3]; predicted non-responders,1.04±0.08
same,number of T1 enhancing lesions at month 12,[3]; predicted non-responders,1.70±0.38
same,number of confirmed relapses (nrelapse),[3]; predicted non-responders,0.88±0.06
same,response rate,"[3]; predicted non-responders, Gala and Forte cohorts",34%
same,EDSS progression,[3]; predicted responders,0.03±0.01
same,number of T1 enhancing lesions at month 12,[3]; predicted responders,0.91±0.18
same,ARR reduced (improved) by,[3]; [16],80%
same,improved response rate,[3]; [16],2.7 fold
same,number of T1 enhancing lesions at month 12 reduced (improved) by,[3]; [16],47%
same,number of confirmed relapses reduced (improved) by,[3]; [16],78%
same,improvement in response rate,[3]; [17],34%
same,reduced EDSS progression,[3]; [17],49%
same,ARR reduced (improved) by,[3]; [18],60%
same,number of confirmed relapses reduced (improved) by,[3]; [18],58%
same,EDSS progression delayed (improved) by,[3]; predicted responders versus predicted non-responders,72%
same,response rate,"[3]; predicted responders, Gala and Forte cohorts",91.1% and 91%
same,annualized relapse rate (ARR),[3]; [19],0.21±0.03
same,number of confirmed relapses (nrelapse),[3]; [19],0.19±0.03
same,relapse rate reduced by,"[4]; GA 20 mg vs placebo, largest controlled study",32%
same,tolerability,[4]; daily standard dose of 20 mg,generally well tolerated
same,median cumulative number of Gd-enhancing lesions,"[4]; over 9 months of treatment, 20 mg group",11 lesions
same,relapse rate,"[4]; under GA 20 mg, largest controlled study",1.34
same,response rate,[5]; DRB1*1501 carriers,81.8%
same,response rate,[5]; non-carriers of DRB1*1501,39.4%
same,response rate,[5]; whole study population (N=83 RRMS),50%
